US20150110865A1, “CNS STIMULANT AND OPIOID RECEPTOR ANTAGONIST COMBINATION AS A NON-ADDICTIVE, NON-AVERSIVE AND SYNERGISTIC ANTI-OBESITY TREATMENT” (FLORIDA STATE UNIVERSITY RESEARCH FOUNDATION, priority 2013, published 2015)

Assays:
μ opioid receptor (MOPR) [1] = assay: MOPR activity by DAMGO-stimulated [35S]GTPγS binding in brain membranes of drug-treated mice after the CPP assay; type: in vivo, mouse; details: low dose MPH 0.75 mg/kg; either brain region; FIG. 4
Experimental: Activity of the μ opioid receptor (MOPR) is assayed by using [35S]GTPγS binding on membrane preparations. The same mice that are used in the conditioned place preference assay are used for these assays Immediately upon completion of the behavioral assay, the mice are sacrificed by cervical dislocation and the brain is dissected rapidly. The brain is frozen in liquid nitrogen and 1.0 mm slices of the brain were prepared in the coronal plane using a tissue-slicing matrix (Model 15003; Ted Pella, Redding, Calif.). Caudate-putamen and nucleus accumbens are identified in the frozen slices based on anatomical landmarks and samples from these two brain regions are collected using a tissue punch. The samples are homogenized using teflon pestle in Eppendorf tubes (10 strokes) in 300 μl of homogenization buffer containing 25 mMTris/pH 7.4, 5 mMEDTA and 0.1 mMPMSF and kept on ice. Homogenate is diluted to 2.5 ml using the homogenization buffer and centrifuged at −350,000 g for 30 min. […]
(§1) Nonspecific binding is defined by incubation in the presence of 10 μM GTPγS. […] Radioactivity on filters is determined by liquid scintillation counting. […]
Differences between two experimental groups are analyzed for statistical significance by using Student's t-test. […]

[2] = 0.75 mg/kg MPH administered to adult mice; cited from earlier work
C57/B6 mice = assay: Conditioned place preference (CPP); type: in vivo, mouse; details: for time spent in drug-paired chamber, Test sessions compared to pre-conditioning sessions: FIG. 1; for CPP score compared to saline-treated group: FIG. 2; for time spent in drug-paired chamber, Test sessions compared to PC sessions: p>0.05, n=6; for CPP score compared to saline control group: p>0.05
Excerpt: C57/B6 mice are purchased from Charles River Laboratories. Only male mice are used.
A three-chamber place preference apparatus is used. The apparatus has two equally sized (16.8×12 cm) preference chambers connected by a central chamber (7.2×12 cm), and is outfitted with sliding guillotine-style doors between each chamber. Photobeams connected to a computer system can record animal location and time spent in that location. The central chamber has a gray colored smooth floor. The preference chamber is either white with a mesh floor or black with a bar floor. The CPP procedure included three phases: Pre-conditioning, conditioning and test phases.
The pre-conditioning phase is performed on day 1 (two sessions daily, AM and PM). In each pre-conditioning session, mice are initially placed in the central gray chamber for 2 min and then allowed free access to the white and black chambers for 20 min. The time spent in each chamber is recorded.
For the next phase in the assay, the conditioning phase, the non-preferred chamber (i.e. the chamber in which less time is spent) is designated as the drug-paired chamber and the preferred chamber (i.e. the chamber in which more time was spent) is designated as the vehicle-paired chamber.
The conditioning phase is carried out on each of days 2-6. There are two conditioning sessions daily, morning session between 8 and 10 AM and afternoon session between 2 and 4 PM. There is one session each for vehicle-paired (saline as vehicle) and drug-paired (MPH as drugs) conditions on each day of the conditioning phase. The mice are administered saline or drug (i.p.) in the saline- or drug-paired sessions, respectively and placed in the central gray chamber for 2 min (to isolate injection effect to the central chamber) and then confined to the vehicle-or-drug-paired chamber, respectively for 30 min. On the first day of the conditioning phase, the mouse receive saline during the morning session and the drug in the afternoon session. The next day, the order of treatments is reversed: drug in the morning session and saline in the afternoon session. These two paradigms are alternated for the remainder of the conditioning phase. This conditioning strategy is used for all the experiments except those using naltrexone.
Saline is administered on the first day and naltrexone (or naltrexone+MPH) is administered the following day. Administrations of saline and naltrexone are alternated for each of the next 9 days (total duration of conditioning is 10 days).
During the test phase, (one session on the day after the conditioning phase) the mice are placed in the central gray chamber for 2 min and then given free access to the drug- and saline-paired chambers for 20 min. The time spent in each chamber is recorded. The difference between time spent in the drug-paired chamber during the test phase and pre-conditioning phases was calculated as the CPP score. Saline and the drugs are administered intraperitoneally. All the behavioral analyses are performed during the light phase of the light-dark cycle.
Differences between two experimental groups are analyzed for statistical significance by using Student's t-test. Treatment effects on multiple groups are tested for significance by using one-way ANOVA and the differences among the groups are tested for significance by using Dunnett's multiple comparisons test.

[3] = tested on: prenatal nicotine exposure mouse model of ADHD; details: cited from earlier work
μ opioid receptor (MOPR) [4] = molecular target: T1, μ opioid receptor (MOPR) (Mus musculus, UniProt P42866); type: biochemical; set-up: dose or concentration left out as unconfirmed; details: caudate-putamen membranes; FIG. 3
T1 construct: Caudate-putamen and nucleus accumbens are identified in the frozen slices based on anatomical landmarks and samples from these two brain regions are collected; from tissue; host or cells: mouse brain: caudate-putamen and nucleus accumbens membrane preparations
Experimental: Activity of the μ opioid receptor (MOPR) is assayed by using [35S]GTPγS binding on membrane preparations. The same mice that are used in the conditioned place preference assay are used for these assays Immediately upon completion of the behavioral assay, the mice are sacrificed by cervical dislocation and the brain is dissected rapidly. The brain is frozen in liquid nitrogen and 1.0 mm slices of the brain were prepared in the coronal plane using a tissue-slicing matrix (Model 15003; Ted Pella, Redding, Calif.). Caudate-putamen and nucleus accumbens are identified in the frozen slices based on anatomical landmarks and samples from these two brain regions are collected using a tissue punch. The samples are homogenized using teflon pestle in Eppendorf tubes (10 strokes) in 300 μl of homogenization buffer containing 25 mMTris/pH 7.4, 5 mMEDTA and 0.1 mMPMSF and kept on ice. Homogenate is diluted to 2.5 ml using the homogenization buffer and centrifuged at −350,000 g for 30 min. After washing 3 times with 50 mM Tris-HCl/pH 7.4, the pellets are re-suspended in 50 mM Tris-HCl/pH 7.4 containing 0.32 M sucrose, passed through a 26.5 G needle 3 times, frozen in dry ice/ethanol and stored in −80° C. until use.
as §1

[5] = naltrexone 5 mg/kg prior to MPH 7.5 mg/kg, FIG. 6
[6] = naltrexone 10 mg/kg prior to MPH 7.5 mg/kg, FIG. 6

T1 sequence (P42866 whole entry): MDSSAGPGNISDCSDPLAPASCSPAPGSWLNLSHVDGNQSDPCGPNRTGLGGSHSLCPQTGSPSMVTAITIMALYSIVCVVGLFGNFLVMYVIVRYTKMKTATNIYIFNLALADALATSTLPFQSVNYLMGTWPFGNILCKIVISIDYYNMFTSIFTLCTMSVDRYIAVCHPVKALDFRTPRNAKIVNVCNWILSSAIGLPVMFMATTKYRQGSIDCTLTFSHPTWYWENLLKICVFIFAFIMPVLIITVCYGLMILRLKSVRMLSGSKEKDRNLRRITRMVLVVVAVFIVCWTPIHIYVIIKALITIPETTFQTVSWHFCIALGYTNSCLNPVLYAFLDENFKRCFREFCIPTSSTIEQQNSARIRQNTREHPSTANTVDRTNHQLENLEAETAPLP

## COC(=O)C(c1ccccc1)C1CCCCN1 (centres unmarked) [MPH, methylphenidate]
μ opioid receptor (MOPR) [1]
  MOPR activity compared to the saline group: no significant difference
[2]
  serum and brain concentrations of D-methylphenidate: equivalent to the levels seen in human subjects given oral therapeutic doses of MPH
C57/B6 mice; high-dose MPH 7.5 mg/kg i.p., t-test p=0.005, n=6/group
  time spent in drug-paired chamber, Test sessions compared to pre-conditioning sessions: significantly longer period of time in the drug-paired chamber
C57/B6 mice; high-dose MPH 7.5 mg/kg plus saline, naltrexone experiment, FIG. 5
  time spent in drug-paired chamber, Test sessions compared to pre-conditioning (PC) sessions: significantly longer period of time in the drug-paired chamber
C57/B6 mice; high-dose MPH 7.5 mg/kg, multiple comparisons test
  CPP score compared to saline-treated group: significant (p<0.05) effects
C57/B6 mice; high-dose MPH 7.5 mg/kg, naltrexone experiment, p<0.01, FIG. 6
  CPP score compared to saline control: significantly greater than that produced by the saline control
C57/B6 mice; low dose MPH 0.75 mg/kg i.p., t-test p>0.05
  time spent in drug-paired chamber, Test sessions compared to pre-conditioning sessions: do not show significant differences
C57/B6 mice; low dose MPH 0.75 mg/kg
  CPP score compared to saline-treated group: no significant difference
[3]; 0.75 mg/kg methylphenidate
  effect on hyperactivity: reduce hyperactivity
[3]; ADHD mouse model
  time after administration at which hyperactivity started to decline: 2 h

## O=C1CC[C@@]2(O)[C@H]3Cc4ccc(O)c5c4[C@@]2(CCN3CC2CC2)[C@H]1O5 [naltrexone]
C57/B6 mice; naltrexone 1 mg/kg alone, FIG. 5
  time spent in drug-paired chamber, Test sessions compared to PC sessions: Neither saline alone nor naltrexone (1 or 10 mg/kg) alone produces significant changes
C57/B6 mice; naltrexone 1 mg/kg prior to MPH 7.5 mg/kg, FIG. 6
  CPP score compared to prior treatment with saline: significantly decrease the CPP score
C57/B6 mice; [5]
  CPP score compared to prior treatment with saline: significantly decrease the CPP score
  CPP score compared to saline control group: not significantly different
C57/B6 mice; naltrexone 10 mg/kg administered with 7.5 mg/kg methylphenidate
  abuse potential of methylphenidate: completely abolishes the abuse potential of methylphenidate
C57/B6 mice; naltrexone 10 mg/kg alone, FIG. 5
  time spent in drug-paired chamber, Test sessions compared to PC sessions: Neither saline alone nor naltrexone (1 or 10 mg/kg) alone produces significant changes
C57/B6 mice; [6]
  CPP score compared to prior treatment with saline: significantly decrease the CPP score
  CPP score compared to saline control group: not significantly different
C57/B6 mice; naltrexone 1, 5 or 10 mg/kg prior to MPH 7.5 mg/kg, FIG. 6
  dose dependence of the decrease in the CPP score: dose-dependent

## C[C@@H](NC(=O)[C@@H](N)Cc1ccc(O)cc1)C(=O)NCC(=O)N(C)[C@@H](Cc1ccccc1)C(=O)NCCO [DAMGO]
μ opioid receptor (MOPR) [4]
  maximal [35S]GTPγS binding: 1.75 fold of the basal level
